# Assay results from ChEMBL document CHEMBL1201861, “Genomics of Drug Sensitity in Cancer screening data, Wellcome Trust Sanger Institute”.
# pIC50: −log10 of the molar value.
# Tests used:
# Test in all cases: cells
# SF-268 = assay type: functional, cell-based, Homo sapiens; settings: Homo sapiens, SF-268;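 note: growth inhibition of SF-268 cells determined with a cell viability assay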
# Description: SANGER: Inhibition of human SF268 cell growth in a cell viability assay.
# COLO-668 = assay type: functional, cell-based, Homo sapiens; settings: Homo sapiens, COLO-668
# Description: SANGER: Inhibition of human COLO-668 cell growth in a cell viability assay.
# EW-18 = assay type: functional, cell-based, Homo sapiens; settings: Homo sapiens, EW-18;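 note: growth inhibition of EW-18 cells, read out by a cell viability assay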
# Description: SANGER: Inhibition of human EW-18 cell growth in a cell viability assay.
# ES6 = assay type: functional, cell-based, Homo sapiens; settings: Homo sapiens, ES6;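 note: growth inhibition of human ES6 cells, read out with a cell viability assay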
# Description: SANGER: Inhibition of human ES6 cell growth in a cell viability assay.
# GCIY = assay type: functional, cell-based, Homo sapiens; settings: Homo sapiens, GCIY;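 note: growth inhibition of the human GCIY cell line, read out by a cell viability assay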
# Description: SANGER: Inhibition of human GCIY cell growth in a cell viability assay.
# DB = assay type: functional, cell-based, Homo sapiens; settings: Homo sapiens, DB
# Description: SANGER: Inhibition of human DB cell growth in a cell viability assay.
# KGN = assay type: functional, cell-based, Homo sapiens; settings: Homo sapiens, KGN;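 note: growth inhibition of KGN cells, read out with a cell viability assay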
# Description: SANGER: Inhibition of human KGN cell growth in a cell viability assay.
# HuTu80 = assay type: functional, cell-based, Homo sapiens, HUTU-80; settings: Homo sapiens, HuTu80;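 note: growth inhibition of HuTu80 human cells, determined with a cell viability readout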
# Description: SANGER: Inhibition of human HUTU-80 cell growth in a cell viability assay.
# MN-60 = assay type: functional, cell-based, Homo sapiens; settings: Homo sapiens, MN-60;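 note: growth inhibition of the MN-60 cell line, determined with a cell viability assay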
# Description: SANGER: Inhibition of human MN-60 cell growth in a cell viability assay.
# NKM-1 = assay type: functional, cell-based, Homo sapiens; settings: Homo sapiens, NKM-1;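 note: growth inhibition of NKM-1 cells, read out with a cell viability assay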
# Description: SANGER: Inhibition of human NKM-1 cell growth in a cell viability assay.
# no-10 = assay type: functional, cell-based, Homo sapiens; settings: Homo sapiens;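 note: growth inhibition of no-10 cells, read out with a cell viability assay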
# Description: SANGER: Inhibition of human no-10 cell growth in a cell viability assay.
# EKVX = assay type: functional, cell-based, Homo sapiens; settings: Homo sapiens, EKVX;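 note: growth inhibition of human EKVX cells, read out with a cell viability assay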
# Description: SANGER: Inhibition of human EKVX cell growth in a cell viability assay.
# JVM-3 = assay type: functional, cell-based, Homo sapiens; settings: Homo sapiens, JVM-3;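 note: growth inhibition of human JVM-3 cells, read out with a cell viability assay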
# Description: SANGER: Inhibition of human JVM-3 cell growth in a cell viability assay.
# NB5 = assay type: functional, cell-based, Homo sapiens; settings: Homo sapiens, NB5;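 note: growth inhibition of NB5 cells, read out as cell viability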
# Description: SANGER: Inhibition of human NB5 cell growth in a cell viability assay.
# BT-474 = assay type: functional, cell-based, Homo sapiens; settings: Homo sapiens, BT-474
# Description: SANGER: Inhibition of human BT-474 cell growth in a cell viability assay.
# TGBC24TKB = assay type: functional, cell-based, Homo sapiens; settings: Homo sapiens, TGBC24TKB;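 note: growth inhibition of human TGBC24TKB cells, read out with a cell viability assay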
# Description: SANGER: Inhibition of human TGBC24TKB cell growth in a cell viability assay.
# TE-12 = assay type: functional, cell-based, Homo sapiens; settings: Homo sapiens, TE-12;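 note: growth inhibition of TE-12 cells, read out by a cell viability assay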
# Description: SANGER: Inhibition of human TE-12 cell growth in a cell viability assay.
# IST-MEL1 = assay type: functional, cell-based, Homo sapiens; settings: Homo sapiens, IST-MEL1;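 note: growth inhibition of the cell line, read out with a cell viability assay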
# Description: SANGER: Inhibition of human IST-MEL1 cell growth in a cell viability assay.
# KY821 = assay type: functional, cell-based, Homo sapiens; settings: Homo sapiens, KY821;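 note: growth inhibition of human KY821 cells, read out by a cell viability assay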
# Description: SANGER: Inhibition of human KY821 cell growth in a cell viability assay.
# NB6 = assay type: functional, cell-based, Homo sapiens; settings: Homo sapiens, NB6;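 note: growth inhibition of NB6 cells, read out by a cell viability assay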
# Description: SANGER: Inhibition of human NB6 cell growth in a cell viability assay.
# HT-144 = assay type: functional, cell-based, Homo sapiens; settings: Homo sapiens, HT-144
# Description: SANGER: Inhibition of human HT-144 cell growth in a cell viability assay.
# MHH-PREB-1 = assay type: functional, cell-based, Homo sapiens; settings: Homo sapiens, MHH-PREB-1;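 note: cell viability assay measuring inhibition of proliferation of human MHH-PREB-1 cells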
# Description: SANGER: Inhibition of human MHH-PREB-1 cell growth in a cell viability assay.
# CW-2 = assay type: functional, cell-based, Homo sapiens; settings: Homo sapiens, CW-2;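 note: growth inhibition of CW-2 cells, read out by a cell viability assay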
# Description: SANGER: Inhibition of human CW-2 cell growth in a cell viability assay.
# EOL1 = assay type: functional, cell-based, Homo sapiens; settings: Homo sapiens, EOL1;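 note: growth inhibition of EoL-1 cells, read out by a cell viability assay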
# Description: SANGER: Inhibition of human EoL-1-cell cell growth in a cell viability assay.
# RXF 393 = assay type: functional, cell-based, Homo sapiens; settings: Homo sapiens, RXF 393;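 note: growth inhibition of human RXF 393 cells, read out with a cell viability assay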
# Description: SANGER: Inhibition of human RXF393 cell growth in a cell viability assay.
# NEC8 = assay type: functional, cell-based, Homo sapiens; settings: Homo sapiens, NEC8;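 note: growth inhibition of human NEC8 cells, read out by a cell viability assay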
# Description: SANGER: Inhibition of human NEC8 cell growth in a cell viability assay.
# MOLT-4 = assay type: functional, cell-based, Homo sapiens; settings: Homo sapiens, MOLT-4;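 note: growth inhibition of MOLT-4 cells, determined with a cell viability readout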
# Description: SANGER: Inhibition of human MOLT-4 cell growth in a cell viability assay.
# SW982 = assay type: functional, cell-based, Homo sapiens; settings: Homo sapiens, SW982;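 note: growth inhibition of SW982 cells, read out with a cell viability assay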
# Description: SANGER: Inhibition of human SW982 cell growth in a cell viability assay.
# CP66-MEL = assay type: functional, cell-based, Homo sapiens; settings: Homo sapiens, CP66-MEL;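 note: growth inhibition of CP66-MEL cells determined in a cell viability assay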
# Description: SANGER: Inhibition of human CP66-MEL cell growth in a cell viability assay.
# SK-N-FI = assay type: functional, cell-based, Homo sapiens; settings: Homo sapiens, SK-N-FI;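 note: cell viability assay measuring growth inhibition of human SK-N-FI cells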
# Description: SANGER: Inhibition of human SK-N-FI cell growth in a cell viability assay.
# 8-MG-BA = assay type: functional, cell-based, Homo sapiens; settings: Homo sapiens, 8-MG-BA;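 note: growth inhibition of 8-MG-BA cells, read out with a cell viability assay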
# Description: SANGER: Inhibition of human 8-MG-BA cell growth in a cell viability assay.
# KNS-42 = assay type: functional, cell-based, Homo sapiens; settings: Homo sapiens, KNS-42;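 note: growth inhibition of KNS-42 cells, read out with a cell viability assay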
# Description: SANGER: Inhibition of human KNS-42 cell growth in a cell viability assay.
# MZ1-PC = assay type: functional, cell-based, Homo sapiens; settings: Homo sapiens, MZ1-PC;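 note: cell viability assay measuring growth inhibition of human MZ1-PC cells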
# Description: SANGER: Inhibition of human MZ1-PC cell growth in a cell viability assay.
# MS-1 = assay type: functional, cell-based, Homo sapiens; settings: Homo sapiens, MS-1;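 note: growth inhibition of MS-1 cells, read out by cell viability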
# Description: SANGER: Inhibition of human MS-1 cell growth in a cell viability assay.
# ETK-1 = assay type: functional, cell-based, Homo sapiens; settings: Homo sapiens, ETK-1;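 note: growth inhibition of human ETK-1 cells, read out with a cell viability assay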
# Description: SANGER: Inhibition of human ETK-1 cell growth in a cell viability assay.
# OMC-1 = assay type: functional, cell-based, Homo sapiens; settings: Homo sapiens, OMC-1;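 note: growth inhibition of the OMC-1 cell line, measured by a cell viability assay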
# Description: SANGER: Inhibition of human OMC-1 cell growth in a cell viability assay.
# Lu-65 = assay type: functional, cell-based, Homo sapiens; settings: Homo sapiens, Lu-65;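 note: growth inhibition of Lu-65 cancer cells, read out by a cell viability assay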
# Description: SANGER: Inhibition of human LU-65 cell growth in a cell viability assay.
# MEG-01 = assay type: functional, cell-based, Homo sapiens; settings: Homo sapiens, MEG-01;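 note: growth inhibition of MEG-01 cells, read out by a cell viability assay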
# Description: SANGER: Inhibition of human MEG-01 cell growth in a cell viability assay.
# DOHH-2 = assay type: functional, cell-based, Homo sapiens; settings: Homo sapiens, DOHH-2;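 note: growth inhibition of human DOHH-2 cells, read out with a cell viability assay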
# Description: SANGER: Inhibition of human DOHH-2 cell growth in a cell viability assay.
# LB2241-RCC = assay type: functional, cell-based, Homo sapiens; settings: Homo sapiens, LB2241-RCC;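 note: cell viability assay measuring how strongly the cultured human renal carcinoma line is prevented from growing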
# Description: SANGER: Inhibition of human LB2241-RCC cell growth in a cell viability assay.
# BB65-RCC = assay type: functional, cell-based, Homo sapiens; settings: Homo sapiens, BB65-RCC;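 note: growth inhibition of the cell line, measured with a cell viability assay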
# Description: SANGER: Inhibition of human BB65-RCC cell growth in a cell viability assay.
# NCI-H1092 = assay type: functional, cell-based, Homo sapiens; settings: Homo sapiens, NCI-H1092;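 note: cell growth inhibition measured with a cell viability assay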
# Description: SANGER: Inhibition of human NCI-H1092 cell growth in a cell viability assay.
# CTV-1 = assay type: functional, cell-based, Homo sapiens; settings: Homo sapiens, CTV-1;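 note: growth inhibition of the cell line, read out with a cell viability assay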
# Description: SANGER: Inhibition of human CTV-1 cell growth in a cell viability assay.
# NOMO-1 = assay type: functional, cell-based, Homo sapiens; settings: Homo sapiens, NOMO-1;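 note: growth inhibition of human NOMO-1 cells measured by a cell viability assay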
# Description: SANGER: Inhibition of human NOMO-1 cell growth in a cell viability assay.
# TGW = assay type: functional, cell-based, Homo sapiens; settings: Homo sapiens, TGW;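 note: growth inhibition of human TGW cells, read out with a cell viability assay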
# Description: SANGER: Inhibition of human TGW cell growth in a cell viability assay.
# MV4-11 = assay type: functional, cell-based, Homo sapiens, MV-4-11; settings: Homo sapiens, MV4-11;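 note: cell viability readout measuring growth inhibition of human MV-4-11 cells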
# Description: SANGER: Inhibition of human MV-4-11 cell growth in a cell viability assay.
# SW684 = assay type: functional, cell-based, Homo sapiens; settings: Homo sapiens, SW684;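 note: growth inhibition of human SW684 cells, measured by a cell viability assay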
# Description: SANGER: Inhibition of human SW684 cell growth in a cell viability assay.
# KM12 = assay type: functional, cell-based, Homo sapiens; settings: Homo sapiens, KM12;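 note: KM12 cell growth inhibition, read out with a cell viability assay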
# Description: SANGER: Inhibition of human KM12 cell growth in a cell viability assay.
# NCI-H1155 = assay type: functional, cell-based, Homo sapiens; settings: Homo sapiens, NCI-H1155;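 note: cell growth inhibition measured by a viability assay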
# Description: SANGER: Inhibition of human NCI-H1155 cell growth in a cell viability assay.
# RKO = assay type: functional, cell-based, Homo sapiens; settings: Homo sapiens, RKO;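 note: growth inhibition of human RKO cells, read out with a cell viability assay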
# Description: SANGER: Inhibition of human RKO cell growth in a cell viability assay.
compound,measurement,setting,value
OCCCNc1cc(-c2ccnc(Nc3cccc(Cl)c3)n2)ccn1,pIC50,SF-268,7.37
same,pIC50,COLO-668,6.63
same,pIC50,EW-18,< 6.59
same,pIC50,ES6,8.06
same,pIC50,GCIY,< 6.59
same,pIC50,DB,6.86
same,pIC50,KGN,7.98
same,pIC50,HuTu80,7.69
same,pIC50,MN-60,6.83
same,pIC50,NKM-1,7.10
same,pIC50,no-10,7.83
same,pIC50,EKVX,< 6.59
same,pIC50,JVM-3,< 6.59
same,pIC50,NB5,< 6.59
same,pIC50,BT-474,< 6.59
same,pIC50,TGBC24TKB,< 6.59
same,pIC50,TE-12,7.31
same,pIC50,IST-MEL1,6.90
same,pIC50,KY821,7.04
same,pIC50,NB6,< 6.59
same,pIC50,HT-144,7.69
same,pIC50,MHH-PREB-1,7.23
same,pIC50,CW-2,< 6.59
same,pIC50,EOL1,< 6.59
same,pIC50,RXF 393,7.43
same,pIC50,NEC8,< 6.59
same,pIC50,MOLT-4,< 6.59
same,pIC50,SW982,7.60
same,pIC50,CP66-MEL,< 6.59
same,pIC50,SK-N-FI,< 6.59
same,pIC50,8-MG-BA,7.25
same,pIC50,KNS-42,6.89
same,pIC50,MZ1-PC,7.37
same,pIC50,MS-1,6.71
same,pIC50,ETK-1,7.86
same,pIC50,OMC-1,6.92
same,pIC50,Lu-65,< 6.59
same,pIC50,MEG-01,6.90
same,pIC50,DOHH-2,7.39
same,pIC50,LB2241-RCC,< 6.59
same,pIC50,BB65-RCC,7.22
same,pIC50,NCI-H1092,6.97
same,pIC50,CTV-1,7.18
same,pIC50,NOMO-1,< 6.59
same,pIC50,TGW,7.11
same,pIC50,MV4-11,7.37
same,pIC50,SW684,< 6.59
same,pIC50,KM12,6.91
same,pIC50,NCI-H1155,< 6.59
same,pIC50,RKO,6.94
Oc1ccc2ccccc2c1SSc1c(O)ccc2ccccc12,pIC50,SF-268,< 4.49
same,pIC50,COLO-668,< 4.49
same,pIC50,EW-18,< 4.49
same,pIC50,ES6,< 4.49
same,pIC50,GCIY,< 4.49
same,pIC50,DB,4.89
same,pIC50,KGN,4.91
same,pIC50,HuTu80,< 4.49
same,pIC50,MN-60,< 4.49
same,pIC50,NKM-1,< 4.49
same,pIC50,no-10,< 4.49
same,pIC50,EKVX,< 4.49
same,pIC50,JVM-3,< 4.49
same,pIC50,NB5,< 4.49
same,pIC50,BT-474,5.13
same,pIC50,TGBC24TKB,< 4.49
same,pIC50,TE-12,< 4.49
same,pIC50,IST-MEL1,< 4.49
same,pIC50,KY821,< 4.49
same,pIC50,NB6,5.42
same,pIC50,HT-144,< 4.49
same,pIC50,MHH-PREB-1,5.46
same,pIC50,CW-2,< 4.49
same,pIC50,EOL1,< 4.49
same,pIC50,RXF 393,< 4.49
same,pIC50,NEC8,< 4.49
same,pIC50,MOLT-4,4.85
same,pIC50,SW982,< 4.49
same,pIC50,CP66-MEL,< 4.49
same,pIC50,SK-N-FI,< 4.49
same,pIC50,8-MG-BA,< 4.49
same,pIC50,KNS-42,< 4.49
same,pIC50,MZ1-PC,< 4.49
same,pIC50,MS-1,< 4.49
same,pIC50,ETK-1,< 4.49
same,pIC50,OMC-1,< 4.49
same,pIC50,Lu-65,< 4.49
same,pIC50,MEG-01,< 4.49
same,pIC50,DOHH-2,< 4.49
same,pIC50,LB2241-RCC,4.55
same,pIC50,BB65-RCC,< 4.49
same,pIC50,NCI-H1092,< 4.49
same,pIC50,CTV-1,5.03
same,pIC50,NOMO-1,< 4.49
same,pIC50,TGW,< 4.49
same,pIC50,MV4-11,5.04
same,pIC50,SW684,< 4.49
same,pIC50,KM12,< 4.49
same,pIC50,NCI-H1155,< 4.49
same,pIC50,RKO,5.28
Cc1ccc(-c2c(C(=O)CCl)n(CCCO)c3ncnc(N)c23)cc1,pIC50,SF-268,< 5.40
same,pIC50,COLO-668,< 5.40
same,pIC50,EW-18,< 5.40
same,pIC50,ES6,< 5.40
same,pIC50,GCIY,< 5.40
same,pIC50,DB,< 5.40
same,pIC50,KGN,< 5.40
same,pIC50,HuTu80,< 5.40
same,pIC50,MN-60,< 5.40
same,pIC50,NKM-1,< 5.40
same,pIC50,no-10,< 5.40
same,pIC50,EKVX,< 5.40
same,pIC50,JVM-3,< 5.40
same,pIC50,NB5,< 5.40
same,pIC50,BT-474,< 5.40
same,pIC50,TGBC24TKB,< 5.40
same,pIC50,TE-12,< 5.40
same,pIC50,IST-MEL1,< 5.40
same,pIC50,KY821,5.43
same,pIC50,NB6,< 5.40
same,pIC50,HT-144,5.48
same,pIC50,MHH-PREB-1,5.41
same,pIC50,CW-2,< 5.40
same,pIC50,EOL1,< 5.40
same,pIC50,RXF 393,< 5.40
same,pIC50,NEC8,< 5.40
same,pIC50,MOLT-4,< 5.40
same,pIC50,SW982,5.88
same,pIC50,CP66-MEL,< 5.40
same,pIC50,SK-N-FI,< 5.40
same,pIC50,8-MG-BA,< 5.40
same,pIC50,KNS-42,< 5.40
same,pIC50,MZ1-PC,5.54
same,pIC50,MS-1,< 5.40
same,pIC50,ETK-1,< 5.40
same,pIC50,OMC-1,< 5.40
same,pIC50,Lu-65,< 5.40
same,pIC50,MEG-01,< 5.40
same,pIC50,DOHH-2,5.57
same,pIC50,LB2241-RCC,6.16
same,pIC50,BB65-RCC,< 5.40
same,pIC50,NCI-H1092,< 5.40
same,pIC50,CTV-1,< 5.40
same,pIC50,NOMO-1,< 5.40
same,pIC50,TGW,< 5.40
same,pIC50,MV4-11,< 5.40
same,pIC50,SW684,< 5.40
same,pIC50,KM12,< 5.40
same,pIC50,NCI-H1155,< 5.40
same,pIC50,RKO,< 5.40
